Source: patent publication US20230330243A1, “COMBINATION OF ANTIBODY-DRUG CONJUGATE AND ATR INHIBITOR” (Daiichi Sankyo Company, Limited, priority 2020, published 2023)
Structures can show the parent of a compound that is named as a salt.

Assays:
[1] = test system: ATR pathway in KPL4 (breast carcinoma) cells; test: Antibody blots of ATR signaling (Example 6); format: cell-based
Procedure: (§1) Gastric cancer NCI-N87 and breast carcinoma KPL4 cell lines were cultured in RPMI 1640 supplemented with 10 % FCS in a humidified incubator at 37° C. with 5% CO2. Cells were plated in 6-well plates at optimal density to allow linear proliferation for the duration of the assay. […] 7 h, 24 h or 48 h after dosing, whole-cell extracts were obtained by lysis in 50 mM Tris-HC1 pH 7.5, 2% SDS containing protease and phosphatase inhibitors. Lysates were boiled for 5 minutes at 95° C. Protein concentration was measured using a Nanodrop at […] and 50 µg of lysate were loaded in 4-12% Bis Tris gels. Proteins were transferred using iblot2. Primary antibodies (see Table 7) were incubated overnight at 4° C. in 3% milk TBS-tween 0.05% and HRP-conjugated secondary antibodies for 1h at room temperature. Blots were imaged using a G-box.

[2] = test system: ATR pathway in NCI-N87 (gastric cancer) cells; test: Antibody blots of ATR signaling (Example 6); format: cell-based
Procedure: as §1

SK-OV-3 = test: Nuclear cell count growth inhibition / synergy, 4 to 8 days (Example 4); format: cell-based; conditions: Homo sapiens; SK-OV-3, Ovarian, HER2 Moderate; monotherapy
Procedure: (§2) Cells grown in their respective conditions were plated in 96-well plates at optimal density to allow linear proliferation for the duration of the assay (4 to 8 days; duration of treatment is dependent on the growth rate of each cell line). Immediately after plating, the cells were dosed with the indicated compounds for a total volume of 200 µL/well and placed in the incubator. Combinations were conducted as a 6 × 8 concentration response matrix for each combination. At the endpoint, the cells were fixed in 2% PFA for 20 minutes at room temperature. In order to obtain the number of cells at the start of treatment, one additional plate was used for each experiment and fixed after cells attached. The cells were then permeabilised in 0.5% Triton-X100 in PBS for 10 minutes. After a PBS wash, the cells were blocked in 5% FBS in PBS 1h at RT and incubated with primary antibodies in 5% FBS + 0.05% triton overnight at 4° C. After 3 washes in PBS cells were incubated with secondary antibodies in 5% FBS + 0.05% triton with Hoechst33258 for 1h at room temperature. After 3 washes in PBS, the cells were scanned with a Cellinsight instrument with a 10× objective and 9 fields/well. Images were analysed using Columbus for cell count based on nuclear Hoechst staining and nuclear intensity of other biomarkers investigated. […]

JIMT-1 = test: as above; format: cell-based; conditions: Homo sapiens; JIMT-1, Breast, HER2 Expressed; monotherapy
Procedure: as §2

[3] = test system: NCI-N87 tumors implanted subcutaneously; test: NCI-N87 xenograft tumor growth inhibition (Example 5); format: in vivo, Female Nude mice; conditions: AZD6738 25 mg/kg PO BID (14 d-on/14-d off); day 40 post treatment
KPL4 = test: Nuclear cell count growth inhibition / synergy and IF biomarkers, 4 to 8 days (Example 4); format: cell-based
Procedure: (§3) Cells grown in their respective conditions were plated in 96-well plates at optimal density to allow linear proliferation for the duration of the assay (4 to 8 days; duration of treatment is dependent on the growth rate of each cell line). Immediately after plating, the cells were dosed with the indicated compounds for a total volume of 200 µL/well and placed in the incubator. Combinations were conducted as a 6 × 8 concentration response matrix for each combination. At the endpoint, the cells were fixed in 2% PFA for 20 minutes at room temperature. In order to obtain the number of cells at the start of treatment, one additional plate was used for each experiment and fixed after cells attached. The cells were then permeabilised in 0.5% Triton-X100 in PBS for 10 minutes. After a PBS wash, the cells were blocked in 5% FBS in PBS 1h at RT and incubated with primary antibodies in 5% FBS + 0.05% triton overnight at 4° C. After 3 washes in PBS cells were incubated with secondary antibodies in 5% FBS + 0.05% triton with Hoechst33258 for 1h at room temperature. After 3 washes in PBS, the cells were scanned with a Cellinsight instrument with a 10× objective and 9 fields/well. Images were analysed using Columbus for cell count based on nuclear Hoechst staining and nuclear intensity of other biomarkers investigated. The total cell count/well was used to calculate the relative growth in each well compared to solvent control. […] The mean/well of the sum of the nuclear intensity of the IF biomarkers was also expressed relative to solvent control.

MDA-MB-468 = test: as above; format: cell-based
Procedure: as §3

NCI-N87 = test: Nuclear cell count growth inhibition, 4 to 8 days (Example 4); format: cell-based; conditions: Homo sapiens; NCI-N87, Gastric, HER2 High; monotherapy
Procedure: as §2

[4] = test system: DU145-SLFN11 KO (CRISPR-Cas9 gene knockout of SLFN11); test: as above; format: cell-based; conditions: Prostate, HER2 Low, monotherapy
Procedure: as §2

[5] = AZD6738 at 1 µM in combination with DS-8201 or exatecan mesylate
[6] = DS-8201 at 30 µg/mL or exatecan mesylate alone, 7 h, 24 h or 48 h

C[C@@H]1COCCN1c1cc(C2([S@](C)(=N)=O)CC2)nc(-c2ccnc3[nH]ccc23)n1 [AZD6738, 4-{4-[(3R)-3-methylmorpholin-4-yl]-6-[1-((R)-S-methylsulfonimidoyl)cyclopropyl]pyrimidin-2-yl}-1H-pyrrolo[2,3-b]pyridine]
Activation of pATR and pChk1 and cell cycle arrest induced by DS-8201 or exatecan mesylate ([1]; AZD6738 at 1 µM in combination): inhibited the activation of pATR and pChk1 and cell cycle arrest | Cell death (cCasp3) [1, 5]: increased cell death | DNA damage (pKap1, gH2AX) [1, 5]: exacerbating the DNA damage | Activation of pATR and pChk1 and cell cycle arrest induced by DS-8201 or exatecan mesylate ([2]; AZD6738 at 1 µM in combination): inhibited the activation of pATR and pChk1 and cell cycle arrest | Cell death (cCasp3) [2, 5]: increased cell death | DNA damage (pKap1, gH2AX) [2, 5]: exacerbating the DNA damage | GI50 (SK-OV-3): 1010 nM | GI50 (JIMT-1): 788 nM | Best response %TGI/regression (maximum TGI) [3]: 62% | GI50 (KPL4; KPL4, Breast, HER2 High, monotherapy): > 3000 nM | GI50 (MDA-MB-468; Homo sapiens, MDA-MB-468, Breast, HER2 Low, monotherapy): 2070 nM | GI50 (NCI-N87): 436 nM

CC[C@@]1(O)C(=O)OCc2c1cc1n(c2=O)Cc2c-1nc1cc(F)c(C)c3c1c2[C@@H](N)CC3 [Exatecan mesylate, (1S,9S)-1-amino-9-ethyl-5-fluoro-1,2,3,9,12,15-hexahydro-9-hydroxy-4-methyl-10H,13H-benzo[de]pyrano[3′,4′:6,7]indolizino[1,2-b]quinolin-10,13-dione, reference compound]
ATR pathway (pATR-T1989, pChk1-S345) and cell cycle arrest (pCdc2-Y15) [1, 6]: induced activation of the ATR pathway | ATR pathway (pATR-T1989, pChk1-S345) and cell cycle arrest (pCdc2-Y15) [2, 6]: induced activation of the ATR pathway | Biomarkers of ATM (KAP1 pSer824) activation and DNA strand breaks (γH2AX) (KPL4; KPL4, single agent): induced in a concentration dependent manner | Combination activity with AZD6738 (in words) (KPL4; high-HER2 KPL4, in combination with AZD6738, clinically relevant concentrations): synergistic activity and cell death | Combination activity with AZD6738 (in words) (MDA-MB-468; HER2-negative MDA-MB-468, in combination with AZD6738): still showed combination activity | GI50 [4]: 0.45 nM
